{
  "source": "patent US4350691A",
  "about": "“Certain azabicyclocarboxamides and compositions containing same” (Beecham Group Limited, priority 1979, dated 1982)",
  "format_in_all_cases": "in vivo",
  "key": {"[1]": {"system": "dopamine receptor", "experiment": "Inhibition of Apomorphine Induced Climbing in the Mouse", "conditions": "for Activity % Inhibition: apomorphine induced climbing, apomorphine 1 mg/kg s.c., orally 30 min prior", "description": "The compound prepared in Example 3 was tested for inhibition of apomorphine induced climbing behaviour in the mouse. This is indicative of dopamine receptor blockade in the central nervous system.\nThe test is based on that described by Protais, P., Constantin, J. and Schwartz, J. C. (1976), Psychopharmacology, 50, 1-6.\nApomorphine 1 mg/kg s.c. induces mice to climb the wall of a wire cage (inverted food hopper--11×7.5×18 cm high). Mice acclimatised in their home cages in groups of 5 are placed under the hoppers immediately after the injection of apomorphine 1 mg/kg s.c. At 10,20 and 30 minutes after injection climbing behaviour is scored. The mice are observed for 30 seconds and scored according to the position they spend the majority of time in, score 0--four paws on floor of cage; score 1--fore paws only on walls; score 2--all paws on wall of cage. The scores at all 3 times and for each mouse are summed and mice drug treated orally 30 min. prior to apomorphine compared to mice receiving apomorphine only. A saline only treated group is also included and any score, generally 5% of maximum taken into account."}, "[2]": {"system": "gastric motility", "experiment": "Gastric Motility Testing in the Rat (reversal of the inhibition effect of 6,7-ADTN)", "conditions": "conscious chronic gastric fistula rat; for reversal of the reduction of basal gastric motor activity by 6,7-ADTN: 10 minutes after 6,7-ADTN 1 mg/kg s.c.", "description": "The compounds were tested for ability to reverse the inhibition effect of 6,7-ADTN on gastric motility recorded by an open tipped catheter in the conscious chronic gastric fistula rat. […] For subcutaneous testing the compounds were dissolved in water by the addition of tartaric acid (1/2 mole per mole of compound)."}, "[3]": {"system": "vomiting response", "experiment": "Anti-emetic Activity in the Dog (apomorphine HCl vomiting response)", "conditions": "Canis lupus familiaris, 0.5 h; s.c., 30 minutes prior to apomorphine HCl 0.1 mg/kg subcutaneously; read-out: dose that totally inhibited the vomiting response", "description": "Compounds were administered subcutaneously 30 minutes, or per os 2 hr, prior to administration of a standard dose of apomorphine HCl (0.1 mg/kg subcutaneously) and the vomiting response compared to that obtained when the same animals were dosed with apomorphine HCl and vehicle only."}},
  "data": [
    {"smiles": "COc1cc(N)c(Cl)cc1NC(=O)[C@@H]1C[C@H]2CC[C@@H](C1)N2Cc1ccc(C)cc1", "note": "[Compound 47, 5-amino-4-chloro-2-(8'-[4\"-methylbenzyl]-8'-azabicyclo [3.2.1]octane-3'β-carboxamido)anisole]", "values": [
      {"measurement": "Activity % Inhibition", "setting": "[1]; compound dose 10 mg/kg", "value": 100, "unit": "%"}
    ]},
    {"smiles": "COc1cc(N)c(Cl)cc1NC(=O)[C@@H]1C[C@H]2CC[C@@H](C1)N2Cc1ccc(Cl)c(Cl)c1", "note": "[Compound 45, 5-amino-4-chloro-2-(8'-[3\",4\"-dichlorobenzyl]-8'-azabicyclo[3.2.1]octane-3β'-carboxamido)anisole]", "values": [
      {"measurement": "Activity % Inhibition", "setting": "[1]; compound dose 10 mg/kg", "value": 100, "unit": "%"}
    ]},
    {"smiles": "COc1ccc(NC(=O)[C@@H]2C[C@H]3CC[C@@H](C2)N3Cc2ccccc2)c(OC)c1", "note": "[Compound 20, 3-methoxy-4-[8'-benzyl-8'-azabicyclo[3.2.1]octane-3β'-carboxamido]anisole]", "values": [
      {"measurement": "Activity % Inhibition", "setting": "[1]; compound dose 10 mg/kg", "value": 100, "unit": "%"}
    ]},
    {"smiles": "NC1CCc2cc(O)c(O)cc2C1", "note": "(stereo not drawn) [6,7-ADTN, reference compound]", "values": [
      {"measurement": "basal gastric motor activity", "setting": "[2]; 6,7-ADTN 1 mg/kg s.c.", "value": "reduced basal gastric motor activity"}
    ]},
    {"smiles": "COc1cc(N)c(Cl)cc1NC(=O)[C@@H]1C[C@H]2CC[C@@H](C1)N2Cc1ccccc1", "note": "[Compound 44, 5-Amino-4-chloro-2-[8'-benzyl-8'-azabicyclo-[3.2.1]octane-3'β-carboxamido]-anisole]", "values": [
      {"measurement": "Activity % Inhibition", "setting": "[1]; compound dose 1 mg/kg", "value": 100, "unit": "%"},
      {"measurement": "ED50", "setting": "[1]; inhibition of apomorphine induced climbing, orally 30 min prior to apomorphine 1 mg/kg s.c.", "value": 0.05, "unit": "mg/kg"}
    ]},
    {"smiles": "COc1cc(N)c(Cl)cc1NC(=O)[C@@H]1C[C@H]2CC[C@@H](C1)N2CCC(C)C", "note": "[Compound 53, 5-amino-4-chloro-2-(8'-3\"-methylbutyl-8'-azabicyclo [3.2.1]octane-3'β-carboxamido)anisole]", "values": [
      {"measurement": "Activity % Inhibition", "setting": "[1]; compound dose 10 mg/kg", "value": 56, "unit": "%"}
    ]},
    {"smiles": "COc1cc(N)c(Cl)cc1NC(=O)[C@@H]1C[C@H]2CC[C@@H](C1)N2CC1CCCCC1", "note": "[Compound 55, 5-amino-4-chloro-2-(8'-cyclohexylmethyl-8'-azabicyclo [3.2.1]octane-3'β-carboxamido)anisole]", "values": [
      {"measurement": "Activity % Inhibition", "setting": "[1]; compound dose 50 mg/kg", "value": 100, "unit": "%"}
    ]},
    {"smiles": "COc1ccc(OC)c(NC(=O)[C@@H]2C[C@H]3CC[C@@H](C2)N3Cc2ccccc2)c1", "note": "[Compound 21, 4-methoxy-2-(8'-benzyl-8'-azabicyclo[3.2.1]octane-3β-carboxamido)anisole]", "values": [
      {"measurement": "Activity % Inhibition", "setting": "[1]; compound dose 2 mg/kg", "value": 60, "unit": "%"}
    ]},
    {"smiles": "COc1ccc(CN2[C@@H]3CC[C@H]2C[C@H](C(=O)Nc2cc(Cl)c(N)cc2OC)C3)cc1", "note": "[Compound 48, 5-amino-4-chloro-2-(8'-[4\"-methoxybenzyl]-8'-azabicyclo [3.2.1]octane-3'β-carboxamido)anisole]", "values": [
      {"measurement": "Activity % Inhibition", "setting": "[1]; compound dose 10 mg/kg", "value": 100, "unit": "%"}
    ]},
    {"smiles": "COc1cc(N)c(Cl)cc1NC(=O)[C@@H]1C[C@H]2CC[C@@H](C1)N2Cc1ccc(Cl)cc1", "note": "[Compound 46, 5-amino-4-chloro-2-(8'-(4\"-chlorobenzyl)-8'-azabicyclo [3.2.1]octane-3'β-carboxamido)anisole]", "values": [
      {"measurement": "Activity % Inhibition", "setting": "[1]; compound dose 10 mg/kg", "value": 100, "unit": "%"}
    ]},
    {"smiles": "COc1ccc(S(N)(=O)=O)cc1NC(=O)[C@@H]1C[C@H]2CC[C@@H](C1)N2Cc1ccccc1", "note": "[Compound 25, 4-aminosulphonyl-2-(8'benzyl-8'-azabicyclo[3.2.1]octane-3'β-carboxamido)anisole]", "values": [
      {"measurement": "reversal of the reduction of basal gastric motor activity by 6,7-ADTN", "setting": "[2]; compound 5 mg/kg s.c.", "value": "reversed"}
    ]},
    {"smiles": "COc1cc(NC(C)=O)c(Cl)cc1NC(=O)[C@@H]1C[C@H]2CC[C@@H](C1)N2Cc1ccccc1", "note": "[Compound 62, 5-Acetamido-4-chloro-2-[8-benzyl-8-azabicyclo (3,2,1)acetone-3β-carboxamido]anisole]", "values": [
      {"measurement": "Activity % Inhibition", "setting": "[1]; compound dose 2 mg/kg", "value": 95, "unit": "%"}
    ]},
    {"smiles": "COc1ccc(S(C)(=O)=O)cc1NC(=O)[C@@H]1C[C@H]2CC[C@@H](C1)N2Cc1ccccc1", "note": "[Compound 24, 4-methylsulphonyl-2-(8'-benzyl-8'-azabicyclo[3,2,1]octane-3'β-carboxamido)anisole]", "values": [
      {"measurement": "reversal of the reduction of basal gastric motor activity by 6,7-ADTN", "setting": "[2]; compound 1 mg/kg s.c.", "value": "reversed"},
      {"measurement": "ED100", "setting": "[3]", "value": 0.1, "unit": "mg/kg"}
    ]}
  ]
}
